Assay results published in patent US8357694B2, “Substituted 5,6-dihydro-6-phenylbenzo[F]isoquinolin-2-amine compounds” (ArQule, Inc., priority 2008, dated 2013).
Where “and” joins values, the source holds several entries; their conditions need not be identical. Equal entries are not always repeated. Where two headings read alike, the source gives them in different places.

Columns and labels:
SNU-16 [1] = assay: MTS assay, SNU-16; assay type: cell-based; conditions: Homo sapiens, SNU-16, SNU-16; read-out: MTS IC50
Method: (§3) Cells were maintained at 37° C., 5% CO2 in DMEM media supplemented with 1% fetal bovine serum, penicillin/streptomycin and fungizone (Invitrogen). Cells were seeded into 96-well tissue culture plates at 3000 per well and cultured at 37° C. for 18 hours. Test compounds were dissolved and diluted to 300× in DMSO then diluted 1:40 in DMEM.

Ba/F3 parental cells = assay: MTS assay, Ba/F3 parental; conditions: Mus musculus, BaF3, read-out: MTS IC50
Method: as §3

FGFR2 kinase = biological target: T1, FGFR2 kinase (Homo sapiens, UniProt P21802, N549H); assay: fluorescent ELISA FGFR2 kinase assay (biochemical)
T1 construct: purchased Millipore 14-742
T1 sequence (P21802 456-770 N549H limits assumed): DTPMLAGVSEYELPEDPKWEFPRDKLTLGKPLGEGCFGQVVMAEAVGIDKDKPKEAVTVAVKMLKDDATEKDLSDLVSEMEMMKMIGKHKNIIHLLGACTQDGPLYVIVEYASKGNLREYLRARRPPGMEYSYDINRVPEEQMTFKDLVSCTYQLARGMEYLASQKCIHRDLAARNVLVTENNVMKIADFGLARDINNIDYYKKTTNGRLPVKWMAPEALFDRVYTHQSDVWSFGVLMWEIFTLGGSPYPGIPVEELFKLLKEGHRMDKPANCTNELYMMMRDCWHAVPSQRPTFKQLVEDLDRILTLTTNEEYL
Method: The enzymatic assays described herein are conducted according to the following procedures from commercially available reagents. In one, non limiting, example, a fluorescent ELISA assay is used to identify and characterize inhibitors of FGFR2 kinase as described herein. This heterogeneous assay utilizes a biotinylated peptide with a tyrosine motif as a substrate and an anti-phospho-tyrosine antibody to measure phosphorylation of the substrate. […] The reaction is incubated for 60 minutes. As the reaction proceeds, FGFR2 phosphorylates tyrosines in the peptide. […] Peptides are captured for 30 minutes at room temperature, the phosphorylation of peptides continues during this phase. The reaction is stopped by washing the streptavidin-coated plate 6 times with TBST. […] Unbound anti-phospho-tyrosine antibody is removed by washing the streptavidin-coated plate 6 times with TBST. […] Unbound secondary antibody is removed by washing the streptavidin-coated plate 6 times with TBST.

KATO III [2] = assay: in vitro PD assay, KATO III; assay type: cell-based; conditions: Homo sapiens
SNU-16 [3] = assay: in vitro PD assay, SNU-16; assay type: cell-based; conditions: Homo sapiens
KATO III [4] = assay: MTS assay, KATO III; assay type: cell-based; conditions: Homo sapiens, read-out: MTS IC50
Method: as §3

CALU-6 = assay: combination cytotoxicity, CALU-6; assay type: cell-based; conditions: in combination with (3R,4R)-3-(5,6-dihydro-4H-pyrrolo[3,2,1-ij]quinolin-1-yl)-4-(1H-indol-3-yl)pyrrolidine-2,5-dione
Text: (§1) The combination data of (R)-6-(2-fluorophenyl)-N-(3-(2-(4-(2-methoxyethyl)piperazin-1-yl)ethyl)phenyl)-5,6-dihydrobenzo[h]quinazolin-2-amine with a kinase inhibitor (3R,4R)-3-(5,6-dihydro-4H-pyrrolo[3,2,1-ij]quinolin-1-yl)-4-(1H-indol-3-yl)pyrrolidine-2,5-dione is shown in Table 28. The identity and tissue origin of cancer cell lines are indicated.

RT4 = assay: combination cytotoxicity, RT4; assay type: cell-based; conditions: in combination with (3R,4R)-3-(5,6-dihydro-4H-pyrrolo[3,2,1-ij]quinolin-1-yl)-4-(1H-indol-3-yl)pyrrolidine-2,5-dione
Text: as §1

[5] = tested on: SNU-16, Ba/F3-FGFR2 or Ba/F3 INSR tumors; assay: tumor growth in xenograft models; assay type: in vivo; conditions: subcutaneous tumors in nude mice; orally dosed once daily
Method: (A) Tumor from cancer cells SNU-16, Ba/F3-FGFR2 or Ba/F3 INSR were established subcutaneously in nude mice. Tumor growth in nude mice orally dosed with the indicated dose of example 159, or vehicle control was determined. All regimens were administered once daily for the indicated number of days. Tumor sizes were evaluated periodically during treatment and are represented as the mean of tumor volume in mm3±SEM (n=10) (FIGS. 4A-C). Phosphorylation of FGFR2 (D) or ERK (E) was assessed for cells from tumors harvested at the indicated time points after a single oral administration of 250 mg/kg of Example 159 by immunohistochemistry.

CAKI-2 = assay: combination cytotoxicity, CAKI-2; assay type: cell-based; conditions: in combination with (3R,4R)-3-(5,6-dihydro-4H-pyrrolo[3,2,1-ij]quinolin-1-yl)-4-(1H-indol-3-yl)pyrrolidine-2,5-dione
Text: as §1

Kato III cells = assay: cell cycle profile by FACS analyses; assay type: cell-based
Method: Kato III cells were treated with example 159, or FGFR2 siRNA. Cell cycle profiles were assessed by FACS analyses (FIG. 3).

SNU-16 [6] = assay: combination cytotoxicity, SNU-16; assay type: cell-based; conditions: in combination with (3R,4R)-3-(5,6-dihydro-4H-pyrrolo[3,2,1-ij]quinolin-1-yl)-4-(1H-indol-3-yl)pyrrolidine-2,5-dione
Text: as §1

FGFR2 in SNU-16 = assay: FGFR2 phosphorylation by immunoblotting, SNU-16; assay type: cell-based; conditions: 0.3 μM to 10 μM for 2 h, then KGF stimulation for 15 min
Method: (§2) Cells whose growth rely on FGFR2 as determined in Example 585 such as KATO III and SNU-16, were treated with increasing concentration of example 159, from 0.3 μM to 10 μM for 2 h, followed by stimulation with […] of KGF for 15 min.

FGFR2 in KATO III = assay: FGFR2 phosphorylation by immunoblotting, KATO III; assay type: cell-based; conditions: 0.3 μM to 10 μM for 2 h, then KGF stimulation for 15 min
Method: as §2

A549 = assay: combination cytotoxicity, A549; assay type: cell-based; conditions: in combination with (3R,4R)-3-(5,6-dihydro-4H-pyrrolo[3,2,1-ij]quinolin-1-yl)-4-(1H-indol-3-yl)pyrrolidine-2,5-dione
Text: as §1

RT112 = assay: combination cytotoxicity, RT112; assay type: cell-based; conditions: in combination with (3R,4R)-3-(5,6-dihydro-4H-pyrrolo[3,2,1-ij]quinolin-1-yl)-4-(1H-indol-3-yl)pyrrolidine-2,5-dione
Text: as §1

LS174T = assay: combination cytotoxicity, LS174T; assay type: cell-based; conditions: in combination with (3R,4R)-3-(5,6-dihydro-4H-pyrrolo[3,2,1-ij]quinolin-1-yl)-4-(1H-indol-3-yl)pyrrolidine-2,5-dione
Text: as §1

THP-1 = assay: combination cytotoxicity, THP-1; assay type: cell-based; conditions: in combination with (3R,4R)-3-(5,6-dihydro-4H-pyrrolo[3,2,1-ij]quinolin-1-yl)-4-(1H-indol-3-yl)pyrrolidine-2,5-dione
Text: as §1

DU4475 = assay: combination cytotoxicity, DU4475; assay type: cell-based; conditions: in combination with (3R,4R)-3-(5,6-dihydro-4H-pyrrolo[3,2,1-ij]quinolin-1-yl)-4-(1H-indol-3-yl)pyrrolidine-2,5-dione
Text: as §1

IC50 (SNU-16 [1]) [nM]	IC50 (FGFR2 kinase; FGFR2 (N549H), read-out: Biochemical data (IC50-μM) FGFR2 (N549H))	IC50 (FGFR2 kinase; read-out: Biochemical IC50) [µM]	IC50 (KATO III [2]) [nM]	IC50 (SNU-16 [3]) [nM]	SMILES	IC50 (Ba/F3 parental cells) [µM]	IC50 (KATO III [4]) [nM]	combination cytotoxicity (CALU-6)	combination cytotoxicity (RT4)	tumor growth in xenograft models [5]	combination cytotoxicity (CAKI-2)	cell cycle profile (Kato III cells)	combination cytotoxicity (SNU-16 [6])	amount of phosphorylated FGFR2 (FGFR2 in SNU-16)	amount of phosphorylated FGFR2 (FGFR2 in KATO III)	combination cytotoxicity (A549)	combination cytotoxicity (RT112)	combination cytotoxicity (LS174T)	combination cytotoxicity (THP-1)	combination cytotoxicity (DU4475)
1000	0.00714 µM and 0.0523 µM	0.0004	100	200	COCCN1CCN(CCc2cccc(Nc3ncc4c(n3)-c3ccccc3[C@H](c3ccccc3F)C4)c2)CC1 [Example 159, (R)-6-(2-fluorophenyl)-N-(3-(2-(4-(2-methoxyethyl)piperazin-1-yl)ethyl)phenyl)-5,6-dihydrobenzo[h]quinazolin-2-amine]	70	100													
					COCCN1CCN(CCc2cccc(Nc3ncc4c(n3)-c3ccccc3[C@H](c3ccccc3F)C4)c2)CC1 [(R)-6-(2-fluorophenyl)-N-(3-(2-(4-(2-methoxyethyl)piperazin-] [(R)-6-(2-fluorophenyl)-N-(3-(2-(4-(2-methoxyethyl)piperazin-1-yl)ethyl)phenyl)-5,6-dihydrobenzo[h]quinazolin-2-amine]			additive cytotoxicity	additive cytotoxicity	inhibition of tumor growth	additive cytotoxicity	arrest of KATO III cells in G1 phase	additive cytotoxicity	inhibition of autophosphorylation of FGFR2	inhibition of autophosphorylation of FGFR2	additive cytotoxicity	additive cytotoxicity	additive cytotoxicity	additive cytotoxicity	additive cytotoxicity
